Reference: patent US8981179B2, “Transgenic non-human animal and uses thereof” (Sanofi, priority 2009, dated 2015)

Key:
[1] = biological target: T1, mGluR7 (Mus musculus, UniProt Q68ED2); assay: Primary cortical neurons CreLuc luciferase assay, Gi modulation via mGluR7; assay type: cell-based; design: endogenous in cells; host or cells: primary cortical neurons, E18 embryos, CreLuc mouse line 187
Description: (§1) A general schematic of the workflow for the isolation and compound treatment of primary neuronal cells from the CreLuc model is depicted in FIG. 9. Cortices or other brain subregions are removed from embryos, usually embryonic (E) day 17 or 18, but also as early as E14. The individual neurons are then isolated and plated onto 96 well assay plates. Assays are run either in triplicate or quadruplicate. The assays are run from day 3 in culture up until day 7 or day 10 in culture depending on the expression levels of the target GPCR. Compounds are added to the plates then at a set timepoint, Bright Glo (Promega, Cat #E2610) is added to the plates and the assay is then run on a TopCount or other luminometer.
Primary cell cultures from the CreLuc mice may be used to screen compounds that are capable of modulating Gi coupled receptors. […] Cortical neurons were harvested from E18 embryos. The assay was run at day 3 in culture. Forskolin was used at 10 μM to give a larger signal window to be used to detect Gi activity. The mGluR7 agonist, AMN082 was used in combination with forskolin at 1 nM, 10 nM, 100 nM and 1 μM. The assay was read on a TopCount with Bright Glo (Promega) at 4 hours, and 8 hours. […] The CreLuc mice can be used to screen for compounds that modulate Gq coupled receptors.
However, to increase the signal window even wider, rolipram (blocks the breakdown of cAMP) was used in combination with forskolin. Primary cortical neurons were isolated from E18 embryos from line 187 which was previously determined to have inducible brain and spinal cord expression. The assay, in triplicates, was run at day 7 in culture for 6 hours. A dose curve, 10 μM down to 1 nM, for AMN082 was run in combination with 50 μM forskolin and 10 μM rolipram. The assay was read on a TopCount luminometer with Bright Glo substrate (Promega). […] All lines used were previously determined to have inducible luciferase expression levels in whole brain tissue extracts (data not shown). […] Bright Glo luciferase assay substrate was then added, and the assay read on a Topcount luminometer. […]

[2] = biological target: T1, mGluR7; assay: Whole brain slice luminescence, Gi agonist with isoproterenol; assay type: cell-based; design: from tissue; host or cells: hippocampal brain slices, CreLuc mouse line 187; conditions: line 187, 1 uM AMN082 in combination with 1 uM ISO
Experimental: Whole brain slices were used to show the effects of compounds on luminescence in CreLuc mice (FIG. 8A, 8B). In general, brains from CreLuc mice can be harvested and then either cut into slices on a microtome or various subregions can also be dissected out and then sliced on a microtome. The slices can then be incubated with different compounds such as forskolin and rolipram, or GPCR specific compounds. Luciferase levels can then be measured with an IVIS bioimager or a photomultiplier with a carousel to take quantitative timecourse measurements.
Brain slices from the hippocampal region of CreLuc mice (line #187) were incubated with 1 uM isoproterenol (Sigma, cat#5627) for 2 days. […] (FIG. 8A, bottom panel). Thus, isoproterenol was used to increase the luciferase signal window which allows for screening GPCR specific compounds such as Gi agonists. AMN082 (AMN, Tocris Bioscience, Cat. No. 2385) is an mGluR7 agonist and mGluR7 is a receptor that is coupled to Gi. When brain slices were treated with 1 uM ISO in combination with 1 uM AMN082, the luciferase signal was diminished in comparison to ISO treatment alone.

[3] = biological target: T2, adrenoceptor beta3 (Adrb3) (Mus musculus, UniProt P25962); assay: Induction of luciferase by Adrb3 agonist in CRE-Luc mice (tissue homogenates, bioimaging); assay type: in vivo; conditions: 1 mg/kg, ip
T2 construct: from tissue; host or cells: whole animal; luciferase read in tissue homogenates (adipose tissue, lung and others) and by bioimaging
T2 sequence (P25962 whole entry): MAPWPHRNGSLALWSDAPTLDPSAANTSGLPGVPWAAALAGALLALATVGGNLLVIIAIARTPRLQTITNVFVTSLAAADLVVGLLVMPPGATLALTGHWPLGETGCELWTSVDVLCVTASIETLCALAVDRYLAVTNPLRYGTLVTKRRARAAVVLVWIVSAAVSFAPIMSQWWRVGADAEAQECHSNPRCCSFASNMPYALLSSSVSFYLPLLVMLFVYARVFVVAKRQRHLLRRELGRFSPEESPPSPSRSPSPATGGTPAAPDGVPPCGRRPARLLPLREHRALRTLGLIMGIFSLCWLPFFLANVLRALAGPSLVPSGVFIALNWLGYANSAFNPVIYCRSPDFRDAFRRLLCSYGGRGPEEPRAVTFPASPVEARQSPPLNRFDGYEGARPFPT
Experimental: The luciferase assay was performed in tissue homogenates.

[4] = biological target: T3, CB1 (Mus musculus, UniProt P47746); assay: Primary cortical neurons CreLuc luciferase assay, Gi modulation by CB1 agonist; assay type: cell-based
T3 construct: endogenous in cells; host or cells: primary cortical neurons, E18, CreLuc mouse lines 69, 187, 175, 219
T3 sequence (P47746 whole entry): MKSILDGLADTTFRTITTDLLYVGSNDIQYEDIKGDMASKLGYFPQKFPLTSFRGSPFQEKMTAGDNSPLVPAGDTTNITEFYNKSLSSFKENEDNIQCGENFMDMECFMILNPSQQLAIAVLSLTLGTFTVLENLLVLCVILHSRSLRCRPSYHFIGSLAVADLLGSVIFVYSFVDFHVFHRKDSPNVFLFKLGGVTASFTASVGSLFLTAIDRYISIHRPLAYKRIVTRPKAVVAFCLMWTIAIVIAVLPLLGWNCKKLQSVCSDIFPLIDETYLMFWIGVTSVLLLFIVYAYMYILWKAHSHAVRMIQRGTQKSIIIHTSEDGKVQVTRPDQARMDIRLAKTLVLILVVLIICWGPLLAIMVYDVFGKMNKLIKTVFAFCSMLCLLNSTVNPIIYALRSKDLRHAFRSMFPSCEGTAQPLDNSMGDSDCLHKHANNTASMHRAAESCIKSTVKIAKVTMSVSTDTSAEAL
Experimental: However, to increase the signal window even wider, rolipram (blocks the breakdown of cAMP) was used in combination with forskolin. Primary cortical neurons were isolated from E18 embryos from line 187 which was previously determined to have inducible brain and spinal cord expression. The assay, in triplicates, was run at day 7 in culture for 6 hours. A dose curve, 10 μM down to 1 nM, for AMN082 was run in combination with 50 μM forskolin and 10 μM rolipram. The assay was read on a TopCount luminometer with Bright Glo substrate (Promega). […] Gi modulation of luciferase expression in primary cortical neurons from different CreLuc lines by the CB1 agonist, CP 55,940 was performed in the presence of forskolin and rolipram (FIG. 15). Primary cortical neurons were harvested from lines 69, 187, 175 and 219 at E18. All lines used were previously determined to have inducible luciferase expression levels in whole brain tissue extracts (data not shown). The assays were run on day three in culture. The CB1 agonist was used at 10 μM, forskolin at 5 μM and rolipram at 10 μM. […] Bright Glo luciferase assay substrate was then added, and the assay read on a Topcount luminometer. […]
Gi modulation of luciferase in primary cortical neurons from CreLuc mice by the CB1 agonist, CP 55,940 was in a dose-dependent manner (FIG. 15B). […] The assay was read on a TopCount with BrightGlo (Promega) at 8 hours.

[5] = tested on: plasma cAMP; conditions: Balb/c mice, 10 mg/kg, blood harvested after 20 minutes; cited from earlier work
[6] = biological target: T4, D1 dopamine receptors (DRD1) (Mus musculus, UniProt Q61616); assay: Primary cortical neurons CreLuc luciferase assay, Gs modulation via DRD1; assay type: cell-based; conditions: 4 hours
T4 construct: Neurons were isolated from the cortices of line 187 E18 embryos; endogenous in cells; host or cells: primary cortical neurons (E18) and striatal neurons (E14), CreLuc mouse line 187
T4 sequence (Q61616 whole entry): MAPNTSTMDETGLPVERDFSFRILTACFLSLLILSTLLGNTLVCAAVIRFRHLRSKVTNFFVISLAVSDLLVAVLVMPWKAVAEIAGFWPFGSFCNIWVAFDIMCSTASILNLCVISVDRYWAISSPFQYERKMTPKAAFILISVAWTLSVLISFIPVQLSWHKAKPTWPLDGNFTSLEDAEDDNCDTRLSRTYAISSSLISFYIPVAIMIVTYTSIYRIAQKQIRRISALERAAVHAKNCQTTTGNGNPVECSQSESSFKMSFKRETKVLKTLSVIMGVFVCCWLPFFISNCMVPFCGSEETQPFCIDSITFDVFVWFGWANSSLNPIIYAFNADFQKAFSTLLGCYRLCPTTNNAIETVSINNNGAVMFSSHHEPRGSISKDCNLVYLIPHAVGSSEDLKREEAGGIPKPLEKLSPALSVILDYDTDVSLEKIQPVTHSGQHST
Description: as §1
The assay was run in triplicates on day three in culture. Forskolin was used at 5 μM, rolipram at 10 μM and the Gs agonists, ADβR-isoproterenol; and Dopamine-SKF82958 (MFG, Cat #C130) at 10 μM. At 4 hours, Bright Glo was added and the assays run on a Topcount. Forskolin is a general activator of cAMP.

[7] = Blood glucose in unfasted CRE-luc mice; assay type: in vivo, mouse; conditions: line 11, AVE0010 0.1 mg/kg, sc
Experimental: The induction of CRE-Luc by AVE0010 is likely beta-cell-specific (FIG. 31). Animals were treated as described in FIG. 30. Blood glucose levels were measured by tail vein nicking on unfasted mice. Glucose levels were read on a Bayer glucometer. Glucose levels are shown as mg glucose/[…]. Fold induction is the luciferase bioimaging levels of AVE10 dosing versus the baseline signals. Blood glucose levels (BG) were increased by STZ (upper left panel). Non-fasting BG levels were reduced by AVE0010 (0.1 mg/kg, sc).

[8] = biological target: T5, glucagon-like peptide 1 receptor (GLP-1R) (Mus musculus, UniProt O35659); assay: Induction of luciferase reporter by GLP-1R agonist in CRE-Luc mice (bioimaging, tissue homogenates); assay type: in vivo
T5 construct: from tissue; host or cells: whole animal; bioimaging and tissue homogenates, signal in the pancreas
T5 sequence (O35659 22-463): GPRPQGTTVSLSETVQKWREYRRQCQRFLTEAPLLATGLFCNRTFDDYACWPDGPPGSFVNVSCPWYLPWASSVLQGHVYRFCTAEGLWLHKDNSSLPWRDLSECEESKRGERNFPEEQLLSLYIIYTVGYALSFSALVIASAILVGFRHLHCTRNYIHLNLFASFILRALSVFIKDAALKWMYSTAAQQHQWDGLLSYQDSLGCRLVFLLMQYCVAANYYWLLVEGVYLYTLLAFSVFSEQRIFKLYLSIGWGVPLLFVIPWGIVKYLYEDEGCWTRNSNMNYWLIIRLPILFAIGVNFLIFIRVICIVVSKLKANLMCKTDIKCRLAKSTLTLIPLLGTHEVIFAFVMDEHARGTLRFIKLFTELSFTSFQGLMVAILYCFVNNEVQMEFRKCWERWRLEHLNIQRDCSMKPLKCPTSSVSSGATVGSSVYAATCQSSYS
Experimental: Transgene activation co-localizes with tissue specific receptor activation as exemplified by the induction of luciferase reporter by the glucagon-like peptide 1 receptor (GLP-1R) agonist, AVE0010, which was studied in three independent lines of CRE-Luc mice (FIG. 28). The GLP-1R is Gs coupled. Baseline images were acquired on day 1. On day 2, mice were treated with AVE0010 (0.1 mg/kg, sc) and imaged after 4 hours. Folds of induction over baseline were indicated at the bottom. […] Luciferase activities in 8 different tissues were measured for lines 11, 16 and 90 (FIG. 29) following treatment with AVE0010 (0.1 mg/kg, s.c.) for 4 hours. […] The activity of AVE0010 is limited to the pancreas even though GLP-1R is found in different tissue types.
The induction of Cre-Luc by AVE0010 is likely beta-cell mediated. The effects of the beta-cell toxin streptozotocin (STZ) on the induction of CRE-Luc by AVE0010 was investigated (FIG. 30). Male CRE-luc mice were imaged before and after AVE0010 (0.1 mg/kg, sc) treatment. […] Then, the animals were treated with vehicle or STZ (200 mpk, ip). Four days later, they were imaged again after AVE0010 treatment.

T1 sequence (Q68ED2 35-915): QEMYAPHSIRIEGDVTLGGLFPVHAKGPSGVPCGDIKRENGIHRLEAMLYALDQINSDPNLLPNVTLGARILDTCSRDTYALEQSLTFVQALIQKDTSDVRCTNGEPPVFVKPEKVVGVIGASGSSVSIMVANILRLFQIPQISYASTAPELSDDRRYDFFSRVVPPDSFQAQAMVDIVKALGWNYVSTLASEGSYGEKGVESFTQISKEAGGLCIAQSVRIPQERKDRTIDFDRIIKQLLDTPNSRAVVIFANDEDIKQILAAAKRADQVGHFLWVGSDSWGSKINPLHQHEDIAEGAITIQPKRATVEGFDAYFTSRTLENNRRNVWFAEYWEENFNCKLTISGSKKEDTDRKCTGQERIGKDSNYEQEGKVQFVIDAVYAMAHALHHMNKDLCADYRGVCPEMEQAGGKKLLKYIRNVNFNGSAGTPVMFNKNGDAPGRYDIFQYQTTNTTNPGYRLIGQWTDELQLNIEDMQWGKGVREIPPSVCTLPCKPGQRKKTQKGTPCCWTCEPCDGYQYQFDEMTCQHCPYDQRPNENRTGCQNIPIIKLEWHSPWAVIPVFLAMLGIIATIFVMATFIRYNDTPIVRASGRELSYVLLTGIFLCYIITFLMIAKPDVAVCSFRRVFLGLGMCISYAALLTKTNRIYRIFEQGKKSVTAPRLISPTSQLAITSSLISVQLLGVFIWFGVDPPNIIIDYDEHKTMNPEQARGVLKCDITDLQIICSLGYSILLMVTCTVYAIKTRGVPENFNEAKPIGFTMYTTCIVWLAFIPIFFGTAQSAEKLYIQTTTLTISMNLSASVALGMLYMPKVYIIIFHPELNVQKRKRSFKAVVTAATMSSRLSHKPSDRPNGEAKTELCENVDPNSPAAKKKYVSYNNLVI

Cl.Cl.c1ccc(C(NCCNC(c2ccccc2)c2ccccc2)c2ccccc2)cc1 [AMN082]
luciferase levels versus forskolin only ([1]; cortical neurons line 187, day 3, 10 μM forskolin, 100 nM and 1 μM AMN082, 4 hours and 8 hours): Significant decreases | EC50 ([1]; cortical neurons line 187, day 3, in combination with 10 μM forskolin, 4 hours, read-out: calculated EC50 (Gi modulation of luciferase)): 174 nM | decreases in luciferase levels vs. forskolin and rolipram controls ([1]; cortical neurons line 187, day 7, 6 hours, 50 μM forskolin and 10 μM rolipram, at 1 μM, 100 nM and 1 nM, p<0.0005): 59-61% | luciferase signal in brain slices in comparison to ISO treatment alone [2]: diminished

C[C@H](Cc1ccc2c(c1)OC(C(=O)[O-])(C(=O)[O-])O2)NC[C@H](O)c1cccc(Cl)c1.[Na+].[Na+] [CL316,243]
induction via bioimaging ([3]; 4 lines, BLI 4-5 hours after treatment): visible induction | induction of luciferase in the adipose tissue and lung (tissue homogenates) ([3]; 7 of 12 independent transgenic lines screened): greater than 10 fold

CCCCCCC(C)(C)c1ccc([C@@H]2C[C@H](O)CC[C@H]2CCCO)c(O)c1 [CP 55,940]
luciferase levels, agonist plus forskolin and rolipram versus forskolin and rolipram alone ([4]; cortical neurons line 187, 10 μM, 1 μM and 100 nM, forskolin and rolipram 10 μM, 8 hours): Significant decreases | luciferase signal with addition of CB1 agonist in different CreLuc lines ([4]; lines 69, 187, 175 and 219, 10 μM with forskolin 5 μM and rolipram 10 μM, four and twenty-four hours): Decreased signals

COc1ccc(C2CNC(=O)NC2)cc1O[C@H]1C[C@@H]2CC[C@H]1C2 [CP-80,633]
plasma cAMP levels [5]: significantly increase

C=CCN1CCc2c(cc(O)c(O)c2Cl)C(c2ccccc2)C1 (stereo not drawn) [SKF82958]
induction of luciferase in combination with rolipram compared to rolipram alone ([6]; cortical neurons line 187, 10 μM with 10 μM rolipram): 2 fold | luciferase levels, agonist alone ([6]; cortical neurons line 187, day 3, 10 μM): did not significantly increase

AVE0010: glucagon-like peptide 1 receptor (GLP-1R) agonist
non-fasting BG levels [7]: reduced | luciferase activity in tissue homogenates of 8 tissues ([8]; lines 11, 16 and 90, 0.1 mg/kg, s.c., 4 hours): pancreas-specific induction of luciferase | bioimaging response of mice before and after treatment ([8]; male line 11, 0.1 mg/kg, sc): responsive | transgene activation in the pancreas (bioimaging) ([8]; three independent lines, 0.1 mg/kg, sc, imaged after 4 hours): strong induction
